Data as given in patent publication US6914045B2, “Glycopeptide antibiotics” (Wyeth Holdings Corporation, priority 2001, dated 2005).
Numbered stars: 1 amine (or outer) side, 2 acyl side, 3 side chain; on linkers, the order of the positions; unused ones are H or OH. Square brackets hold non-standard residues; d marks the D form. Peptide text beside a SMILES is read from it. * marks the point of attachment. ξ: configuration not given here. X1 = N=C1NCC(C(O)C(N[*:1])C(=O)[*:2])N1C1OC(CO)C(O)C(O)C1O; ξEnduracididine(βξ-OH,4'ξ) = N=C1NCC(C(O)C(N)C(=O)O)N1; X2 = OCC1OC(OC2C(CO)OC(*)C(O)C2O)C(O)C(O)C1O; ξCha(3ξ-Me) = CC(C1CCCCC1)C(N)C(=O)O

Tests used:
Experiment in all cases: in vitro antibacterial evaluation, MIC by broth dilution
Format in all cases: cell-based
Staphylococcus sp. = conditions: broth dilution, 18 hours at 35° C.; for MIC Staphylococcus aureus (ATCC 29213): strain ATCC 29213; for MIC Staphylococcus aureus (GC 1131): strain GC 1131; for MIC Staphylococcus aureus (GC 3051): strain GC 3051; for MIC Staphylococcus aureus (GC 3053): strain GC 3053; for MIC Staphylococcus aureus (GC 4541): strain GC 4541; for MIC Staphylococcus aureus (GC 4542): strain GC 4542; for MIC Staphylococcus aureus-SMITH (GC 4543): strain GC 4543; for MIC Staphylococcus aureus (GC 4544): strain GC 4544; for MIC Staphylococcus aureus (GC 4545): strain GC 4545; for MIC Staphylococcus haemolyticus (GC 4546): strain GC 4546; for MIC Coagulase Negative Staphylococcus (GC 4547): strain GC 4547; for MIC Coagulase Negative Staphylococcus (GC 4548): strain GC 4548; for MIC Coagulase Negative Staphylococcus (GC 4549): strain GC 4549; for MIC Coagulase Negative Staphylococcus (GC 4551): strain GC 4551
How it was run: (§1)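 Broth dilution per NCCLS M7-A2 in Mueller-Hinton II medium, inoculum 5×10^5 CFU/mL, antibiotic range 64-0.06 μg/mL. MIC taken as lowest concentration inhibiting growth; Gram-positive panel includes recent clinical isolates resistant to methicillin, penicillin and/or vancomycin.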

Enterococcus sp. = conditions: broth dilution, 18 hours at 35° C.; for MIC Enterococcus faecalis (ATCC 29212): strain ATCC 29212; for MIC Enterococcus faecalis (GC 2242): strain GC 2242; for MIC Enterococcus faecium (GC 2243): strain GC 2243; for MIC Enterococcus faecalis (GC 2691): strain GC 2691; for MIC Enterococcus faecalis (GC 3059): strain GC 3059; for MIC Enterococcus faecalis (GC 4552): strain GC 4552; for MIC Enterococcus faecalis (GC 4553): strain GC 4553; for MIC Enterococcus faecalis (GC 4554): strain GC 4554; for MIC Enterococcus faecium (GC 4556): strain GC 4556; for MIC Enterococcus faecium (GC 4557): strain GC 4557; for MIC Enterococcus avium (GC 4558): strain GC 4558; for MIC Enterococcus faecalis (GC 6189): strain GC 6189
How it was run: as §1

Streptococcus sp. = conditions: broth dilution, 18 hours at 35° C.; for MIC Streptococcus pneumoniae (ATCC 6301): strain ATCC 6301; for MIC Streptococcus pneumoniae (GC 1894): strain GC 1894; for MIC Streptococcus pyogenes (GC 4563): strain GC 4563; for MIC Streptococcus agalactiae (GC 4564): strain GC 4564; for MIC Streptococcus pneumoniae (GC 4565): strain GC 4565
How it was run: as §1

Escherichia coli = conditions: broth dilution, 18 hours at 35° C.; for MIC Escherichia coli (ATCC 25922): strain ATCC 25922; for MIC Escherichia coli (GC 4559): strain GC 4559; for MIC Escherichia coli (GC 4560): strain GC 4560
How it was run: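 Broth dilution MIC per NCCLS M7-A2 in Mueller-Hinton II medium, inoculum 5×10^5 CFU/mL, antibiotic range 64-0.06 μg/mL. MIC taken as lowest concentration inhibiting growth.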

CC(C1CCCCC1)C1NC(=O)CNC(=O)C(CO)NC(=O)C(C(O)C2CNC(=N)N2C2OC(CO)C(O)C(O)C2O)NC(=O)C(C(O)C2CNC(=N)N2)NC(=O)C(Cc2ccc(OC3OC(CO)C(OC4OC(CO)C(O)C(O)C4O)C(O)C3O)cc2)NC1=O (stereo not drawn) [Example 51, Cyclo[3-cyclohexyl-2-aminobutanoyl-O-(4-O-hexopyranosylhexopyranosyl)tyrosyl-3-(2-iminoimidazolidin-4-yl)seryl-3-(3-hexopyranosyl-2-iminoimidazolidin-4-yl)-serylserylglycyl]] (cyclo(G[ξCha(3ξ-Me)]Y(X2)[ξEnduracididine(βξ-OH,4'ξ)][X1]S); configuration not given here)
16 µg/mL: MIC Coagulase Negative Staphylococcus (GC 4547) (Staphylococcus sp.) | MIC Coagulase Negative Staphylococcus (GC 4548) (Staphylococcus sp.) | MIC Enterococcus faecium (GC 4557) (Enterococcus sp.) | MIC Streptococcus agalactiae (GC 4564) (Streptococcus sp.)
4 µg/mL: MIC Coagulase Negative Staphylococcus (GC 4549) (Staphylococcus sp.) | MIC Streptococcus pneumoniae (GC 1894) (Streptococcus sp.)
8 µg/mL: MIC Streptococcus pneumoniae (ATCC 6301) (Streptococcus sp.) | MIC Streptococcus pyogenes (GC 4563) (Streptococcus sp.) | MIC Streptococcus pneumoniae (GC 4565) (Streptococcus sp.) | MIC Escherichia coli (GC 4560) (Escherichia coli)
64 µg/mL: MIC Staphylococcus aureus (GC 3053) (Staphylococcus sp.) | MIC Coagulase Negative Staphylococcus (GC 4551) (Staphylococcus sp.) | MIC Enterococcus faecalis (GC 2242) (Enterococcus sp.) | MIC Enterococcus avium (GC 4558) (Enterococcus sp.) | MIC Escherichia coli (GC 4559) (Escherichia coli)
>64 µg/mL: MIC Enterococcus faecalis (ATCC 29212) (Enterococcus sp.) | MIC Enterococcus faecium (GC 2243) (Enterococcus sp.) | MIC Enterococcus faecalis (GC 2691) (Enterococcus sp.) | MIC Enterococcus faecalis (GC 3059) (Enterococcus sp.) | MIC Enterococcus faecalis (GC 4552) (Enterococcus sp.) | MIC Enterococcus faecalis (GC 4553) (Enterococcus sp.) | MIC Enterococcus faecalis (GC 4554) (Enterococcus sp.) | MIC Enterococcus faecium (GC 4556) (Enterococcus sp.) | MIC Enterococcus faecalis (GC 6189) (Enterococcus sp.) | MIC Escherichia coli (ATCC 25922) (Escherichia coli)
32 µg/mL: MIC Staphylococcus aureus (ATCC 29213) (Staphylococcus sp.) | MIC Staphylococcus aureus (GC 1131) (Staphylococcus sp.) | MIC Staphylococcus aureus (GC 3051) (Staphylococcus sp.) | MIC Staphylococcus aureus (GC 4541) (Staphylococcus sp.) | MIC Staphylococcus aureus (GC 4542) (Staphylococcus sp.) | MIC Staphylococcus aureus-SMITH (GC 4543) (Staphylococcus sp.) | MIC Staphylococcus aureus (GC 4544) (Staphylococcus sp.) | MIC Staphylococcus aureus (GC 4545) (Staphylococcus sp.) | MIC Staphylococcus haemolyticus (GC 4546) (Staphylococcus sp.)

CC(c1ccccc1)C1NC(=O)CNC(=O)C(CO)NC(=O)C(C(O)C2CNC(=N)N2C2OC(CO)C(O)C(O)C2O)NC(=O)C(C(O)C2CNC(=N)N2)NC(=O)C(Cc2ccc3oc(-c4cccc([N+](=O)[O-])c4)nc3c2)NC1=O (stereo not drawn) [Example 26, Cyclo[3-[2-(3-nitrophenyl)-1,3-benzoxazol-5-yl)alanyl-3-(2-iminoimidazolidin-4-yl)seryl-3-(3-hexopyranosyl-2-iminoimidazolidin-4-yl)serylserylglycyl-β-methylphenylalanyl]]
4 µg/mL: MIC Staphylococcus haemolyticus (GC 4546) (Staphylococcus sp.) | MIC Coagulase Negative Staphylococcus (GC 4549) (Staphylococcus sp.) | MIC Coagulase Negative Staphylococcus (GC 6257) (Staphylococcus sp.; strain GC 6257)
32 µg/mL: MIC Staphylococcus aureus (ATCC 29213) (Staphylococcus sp.) | MIC Staphylococcus aureus (GC 4541) (Staphylococcus sp.) | MIC Staphylococcus aureus (GC 4545) (Staphylococcus sp.) | MIC Enterococcus faecalis (ATCC 29212) (Enterococcus sp.) | MIC Enterococcus faecium (GC 2243) (Enterococcus sp.) | MIC Enterococcus faecalis (GC 2691) (Enterococcus sp.) | MIC Enterococcus faecalis (GC 4553) (Enterococcus sp.) | MIC Enterococcus avium (GC 4558) (Enterococcus sp.) | MIC Enterococcus faecalis (GC 6189) (Enterococcus sp.) | MIC Streptococcus pneumoniae (ATCC 6301) (Streptococcus sp.) | MIC Streptococcus pneumoniae (GC 4565) (Streptococcus sp.)
8 µg/mL: MIC Coagulase Negative Staphylococcus (GC 4547) (Staphylococcus sp.) | MIC Enterococcus faecium (GC 4557) (Enterococcus sp.) | MIC Streptococcus pyogenes (GC 4563) (Streptococcus sp.)
16 µg/mL: MIC Staphylococcus aureus (GC 1131) (Staphylococcus sp.) | MIC Staphylococcus aureus (GC 3051) (Staphylococcus sp.) | MIC Staphylococcus aureus (GC 3053) (Staphylococcus sp.) | MIC Staphylococcus aureus (GC 4542) (Staphylococcus sp.) | MIC Staphylococcus aureus-SMITH (GC 4543) (Staphylococcus sp.) | MIC Staphylococcus aureus (GC 4544) (Staphylococcus sp.) | MIC Coagulase Negative Staphylococcus (GC 4548) (Staphylococcus sp.) | MIC Coagulase Negative Staphylococcus (GC 4551) (Staphylococcus sp.) | MIC Streptococcus pneumoniae (GC 1894) (Streptococcus sp.) | MIC Streptococcus agalactiae (GC 4564) (Streptococcus sp.) | MIC Escherichia coli (GC 4560) (Escherichia coli)
64 µg/mL: MIC Enterococcus faecalis (GC 2242) (Enterococcus sp.) | MIC Enterococcus faecalis (GC 3059) (Enterococcus sp.) | MIC Enterococcus faecalis (GC 4552) (Enterococcus sp.) | MIC Enterococcus faecalis (GC 4554) (Enterococcus sp.) | MIC Enterococcus faecium (GC 4556) (Enterococcus sp.) | MIC Escherichia coli (ATCC 25922) (Escherichia coli) | MIC Escherichia coli (GC 4559) (Escherichia coli)
